From patent publication US20070224645A1, “Novel cell-based phosphodiesterase assays” (priority 2006, published 2007)
“Also recorded” adds a separate entry of the source.

Each molecule was assayed on PDE IV (assay: Cell-based PDE assay in ACTOne-IRES-A2b#2 cell line with ACTOne Membrane Potential dye, no external cAMP stimulation). Details: ACTOne-IRES-A2b#2 cell line (HEK293-CNG overexpressing human adenosine A2b receptor); readings before and 30 minutes after compound addition.
Experimental: Before the assay, all cells are harvested when they reach 80-90% confluence or less, and they should not be overgrown. Culture medium of the transfected cells was removed and replaced with a volume of Dulbecco's Phosphate Buffers Saline without calcium and magnesium (DPBS) to adequately cover and wash the cells. The DPBS was removed and a sufficient volume of 1× trypsin-EDTA was added to just cover the cells (i.e. 1 ml for a 10 cm dish, 2 ml for a T75 flask, and 5 ml for a T150 flask). The plate was agitated to make sure the cells were equally covered with the solution. The cells were trypsinized at room temperature for about 5 min. After 5 min, the cells were examined to ensure that they were detached from the dish or flask. Gentle tapping of the dish/flask may aid in the process. Sufficient serum-containing medium were added to an appropriate volume and the medium was pipetted up and down through a serological pipette for 4 times to obtain a single cell suspension. A portion of the cells were counted with a hemocytometer. Cells are diluted in their appropriate medium at 7×10^5 cells/ml. 100 μl/well of cell suspension is added to 96-well plates or 20 μl/well is added to 384-well plates 16-24 hours before use. For cells with HEK293 background, poly-D-lysine-coated plates are recommended. Optimal assay conditions using standard fluorescence plate readers require a confluent monolayer of cells prior to the assay. The number of cells used per well will depend upon a number of conditions including the cell line and the instrument being used to make the reading. Cell plates are removed from the incubator after overnight incubation and examined under microscope. A confluent lawn of consistently spread cells is observed. An equal volume of IX Membrane Potential Dye Solution (BD Biosciences, Rockville, Md.) is then added to each well (e.g. 100 μl to 100 μl culture medium/well for 96-well plates, or 20 μl to 20 μl culture medium/well for 384-well plates). […] The cell plates are further incubated for 2 hrs at room temperature in the dark. Membrane potential assays are performed as described in the manual for ACTOne Membrane Potential Dye Kit (BD Biosciences, Rockville, Md.). Test compounds can be added on-line (some fluorescence plate readers also have fluid addition module, and therefore compound addition and fluorescence intensity reading can happen simultaneously. i.e. FLIPR and FlexStation) or off-line (other liquid handling equipments are used for compound addition). Test compounds in 1×DPBS was added to the cell plates at 50 μl/well for 96-well plates (250 μl total well volume after addition) or 10 μl/well for 384-well plates (50 μl total well volume after addition). Cell plates are loaded into a FLIPR, FLEXstation, or other fluorescence microplate reader to read fluorescence intensity before and after compound addition. The settings on FLIPR are described in the manuals from the manufacturer. For FLEXstation and other fluorescence microplate readers, wavelengths close to the maxima of absorption and emission of the dye are used: for example, 530 nm excitation, 550 auto cut-off, and 565 nm emission. […] Fluorescence intensity counts obtained before and 30 minutes after compound addition were used for data analysis. […] It has been reported that PDE4 is a dominant isozyme in HEK293 cells. In order to analyze the specificity of the PDE assay, different PDE inhibitors (Ro20-1724, Rolipram, Etazolate (PDE IV inhibitors); 8-methoxymethyl-3-isobuty-1-m (PDE I inhibitor); Zaprinast (cGMP specific PDE inhibitor); Quazinon (PDE III inhibitor); IBMX (pan PDE inhibitor)) were purchased from Sigma. They were diluted at different concentrations in 1×DPBS and the assays were performed the same as above using the ACTOne-IRES-A2b#2 cell line. Briefly, the cells were plated on 384-well PDL coated plate. The density of the cells was 14,000 cells per well. The cells were allowed to attach and grow overnight. […]

SMILES | detection of PDE inhibitor activity (dose response, fluorescence intensity)
COCc1nc2c([nH]1)c(=O)n(C)c(=O)n2CC(C)C [8-methoxymethyl-3-isobuty-1-m, 8-Methoxymethyl-3-isobutyl-1-methylxanthine] | negative signals
CCOC(=O)c1cnc2c(cnn2CC)c1NN=C(C)C.Cl [Etazolate, 1-ethyl-4-[(1-methylethylidene)hydrazino]1H-pyrazol-o[3,4-b]pyridine-5-carboxylic acid ethyl ester hydrochloride] | detected
CC(C)Cn1c(=O)n(C)c(=O)c2[nH]cnc21 [IBMX, 3-Isobutyl-1-methylxanthine] | can not be detected; also recorded: negative signals
C[C@@H]1C(=O)NC2=Nc3cccc(Cl)c3CN21 [Quazinon] | negative signals
CCCCOc1cc(CC2CNC(=O)N2)ccc1OC (stereo not shown) [Ro20-1724] | detected
COc1ccc(C2CNC(=O)C2)cc1OC1CCCC1 (stereo not shown) [Rolipram, 4-[3-(cyclopentyloxy)-4-methoxyphenyl]-2-pyrrolidinone] | detected
CCCOc1ccccc1-c1nc2nn[nH]c2c(=O)[nH]1 [Zaprinast] | negative signals
